Experiments:
Type in all cases: biochemical
Zap70 = target: T1, Zap70 (Homo sapiens, UniProt P43403); experiment: AlphaScreen kinase assay, Zap70; settings: read-out: IC50, activity toward kinase Zap70
T1 construct: P1868.pFastBac1 ZAP70 D327-G606 HIS, WT; His7 (HHHHHHH) (C); made in house
T1 sequence (P43403 with tags, fused parts or gaps): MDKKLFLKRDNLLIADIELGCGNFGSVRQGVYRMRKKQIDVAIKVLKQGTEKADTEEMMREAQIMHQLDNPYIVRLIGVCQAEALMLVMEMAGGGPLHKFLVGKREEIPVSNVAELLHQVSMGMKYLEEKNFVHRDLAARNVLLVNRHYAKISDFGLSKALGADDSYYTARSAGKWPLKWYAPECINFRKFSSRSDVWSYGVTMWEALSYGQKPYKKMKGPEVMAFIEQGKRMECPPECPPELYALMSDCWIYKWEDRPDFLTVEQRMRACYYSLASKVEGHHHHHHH
From the text: AlphaScreen assay was used to screen additional kinases. The assay is similarly dependent on the phosphorylation of a peptide substrate. In this assay, an antibody that recognizes phosphorylated substrate is bound to an acceptor bead. The peptide substrate is attached to biotin, which binds to a donor head that contains streptavidin. Thus phosphorylated substrate is bound by antibody and streptavidin, bringing the donor and acceptor heads into close proximity when kinase is not inhibited. The donor produces singlet oxygen which results in emission from the acceptor when they are in close proximity. Conversely, when kinase is inhibited, the donor and acceptor beads are not associated and the emission from the acceptor is reduced.
AlphaScreen assays were done using compounds dissolved in DMSO to a concentration of 20 mM. The compounds were diluted accordingly to the desired final concentrations in each sample well, using 1:3 serial dilution for a total of 8 concentration points.

Yes = target: T2, Yes (Homo sapiens, UniProt P07947); experiment: Z'-Lyte FRET kinase assay (Invitrogen), Yes; settings: read-out: IC50, activity toward kinase Yes
T2 construct: purchased Invitrogen (Carlsbad, Calif.), screening service
T2 sequence (P07947 whole entry): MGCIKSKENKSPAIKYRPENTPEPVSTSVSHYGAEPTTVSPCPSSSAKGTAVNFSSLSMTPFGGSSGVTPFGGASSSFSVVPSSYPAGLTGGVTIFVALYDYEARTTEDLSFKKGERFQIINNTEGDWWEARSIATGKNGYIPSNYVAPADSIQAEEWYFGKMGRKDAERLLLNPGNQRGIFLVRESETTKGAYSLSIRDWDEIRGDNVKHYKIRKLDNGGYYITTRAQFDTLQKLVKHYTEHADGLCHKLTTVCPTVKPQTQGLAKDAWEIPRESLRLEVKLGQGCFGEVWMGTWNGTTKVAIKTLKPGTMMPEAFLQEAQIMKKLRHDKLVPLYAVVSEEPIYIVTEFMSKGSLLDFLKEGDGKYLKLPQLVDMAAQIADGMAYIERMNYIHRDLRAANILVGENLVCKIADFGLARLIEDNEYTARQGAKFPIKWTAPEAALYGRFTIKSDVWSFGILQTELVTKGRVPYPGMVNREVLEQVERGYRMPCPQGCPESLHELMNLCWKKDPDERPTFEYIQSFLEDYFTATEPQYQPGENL
From the text: The effect of potential modulators of kinase activity can be measured in a variety of different assays known in the art. For example, direct radiometric, indirect FRET or AlphaScreen assays may be used to assess the level of phosphorylation of a substrate in the presence of test compounds in order to determine the inhibitory affect of the compound on the kinase. Invitrogen (Carlsbad, Calif.) uses a FRET based assay for Btk, EGFR, EphB2, Flt3, lrak4, Kdr, MAP2K1, MAPKAPK2, PDGFRB, PKC theta, Stk6 and Yes. For these assays, compounds of the invention were screened by Invitrogen using Z′-Lyte™ kinase assay.
Briefly, the Invitrogen kinase assay involves use of a specific peptide substrate optimized for each kinase, containing a fluorophore at each end that make up the FRET pair. The peptide sensitivity to proteolytic cleavage depends on phosphorylation of the peptide. Non-phosphorylated peptide is cleaved by a protease while peptide phosphorylated by the kinase is not cleaved. Cleavage of the peptide disrupts the FRET between the donor (coumarin) and acceptor (fluorescein) fluorophores, resulting in an increase in the ratio of donor emission to acceptor emission. The emission ratio of coumarin to fluorescein is used to assess the reaction progress. The extent of phosphorylation is determined from the emission ratio, which is low when the kinase is active (phosphorylated peptide is not cleaved, FRET pair connected) or higher for inhibited kinase (non-phosphorylated peptide is cleaved, FRET pair separated). Thus, the assay involves a kinase reaction in the presence of varying concentrations of a given compound, a development reaction with site specific protease, and detection of the fluorescent emission ratio of coumarin and fluorscein. […] Reaction conditions for each kinase are determined to provide optimal reaction times, incubation temperature, kinase and ATP concentrations. Test samples are made up in 1× kinase buffer (50 mM HEPES pH 7.5, 50 mM MgCl2, 5 mM EGTA, 0.05% BRIJ-35) and compound at desired concentration prepared in DMSO such that the final DMSO is 1%. […] Typically, assay plates are prepared to 10 μl final volume per sample, adding 2.5 μl of compound at 4× the desired concentration in 4% DMSO (serial dilution of compound provides concentration curve), 5 μl of the desired kinase mixed with Z′-LYTE™ peptide substrate (2× in 2× kinase buffer, final peptide at 2 μM), and 2.5 μl of 4×ATP solution. All kinase except for MAP2K1 were at 10 μM ATP in the kinase reaction, while MAP2K1 was at 100 μM. Samples are mixed and the kinase reaction is incubated 1 hour at room temperature, after which 5 μl of development solution is added and mixed. After incubation for another 1 hour at room temperature, 5 μl of stop reagent is added to each sample and mixed. The fluorescence signals are measured to determine the emission ratio.

Stk6 = target: T3, Stk6 (Homo sapiens, UniProt O14965); experiment: Z'-Lyte FRET kinase assay (Invitrogen), Stk6; settings: read-out: IC50, activity toward kinase Stk6
T3 construct: purchased Invitrogen (Carlsbad, Calif.), screening service
T3 sequence (O14965 1-403): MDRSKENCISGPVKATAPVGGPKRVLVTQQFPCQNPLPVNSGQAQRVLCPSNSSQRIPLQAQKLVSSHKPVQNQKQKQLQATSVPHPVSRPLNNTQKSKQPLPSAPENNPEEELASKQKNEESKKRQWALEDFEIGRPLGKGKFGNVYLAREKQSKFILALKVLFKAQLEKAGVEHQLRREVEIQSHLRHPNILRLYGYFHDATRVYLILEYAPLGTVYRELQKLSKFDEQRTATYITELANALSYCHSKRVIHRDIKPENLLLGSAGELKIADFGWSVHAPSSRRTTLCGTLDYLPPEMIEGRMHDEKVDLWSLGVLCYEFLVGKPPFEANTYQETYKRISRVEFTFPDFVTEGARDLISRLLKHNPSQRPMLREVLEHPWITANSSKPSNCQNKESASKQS

c-Raf-1 = target: T4, c-Raf-1 (Homo sapiens, UniProt P04049); experiment: AlphaScreen kinase assay, c-Raf-1; settings: read-out: IC50, activity toward kinase c-Raf-1
T4 construct: purchased Upstate Biotechnology
T4 sequence (P04049 whole entry): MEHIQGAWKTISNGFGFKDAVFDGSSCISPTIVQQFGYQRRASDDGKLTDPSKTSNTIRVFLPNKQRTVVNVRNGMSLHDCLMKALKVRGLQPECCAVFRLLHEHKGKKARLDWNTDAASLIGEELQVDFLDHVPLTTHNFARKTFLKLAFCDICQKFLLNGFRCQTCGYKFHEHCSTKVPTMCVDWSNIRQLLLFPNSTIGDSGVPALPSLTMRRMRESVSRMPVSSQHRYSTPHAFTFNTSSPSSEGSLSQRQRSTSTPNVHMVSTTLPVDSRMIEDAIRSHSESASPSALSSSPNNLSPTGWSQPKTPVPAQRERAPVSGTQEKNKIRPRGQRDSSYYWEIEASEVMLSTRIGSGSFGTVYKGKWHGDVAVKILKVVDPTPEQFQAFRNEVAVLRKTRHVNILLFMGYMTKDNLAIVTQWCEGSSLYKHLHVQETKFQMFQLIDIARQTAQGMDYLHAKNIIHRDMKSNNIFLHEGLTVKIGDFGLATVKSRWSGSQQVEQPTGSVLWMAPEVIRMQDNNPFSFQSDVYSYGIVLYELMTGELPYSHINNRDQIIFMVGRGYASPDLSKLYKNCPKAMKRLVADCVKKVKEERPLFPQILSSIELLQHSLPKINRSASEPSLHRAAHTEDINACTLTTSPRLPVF

B-Raf V600E = target: T5, B-Raf V600E (Homo sapiens, UniProt P15056, V600E); experiment: AlphaScreen kinase assay, B-Raf V600E; settings: read-out: IC50, activity toward kinase B-Raf V600E
T5 construct: P4254. pFastBacBD-CDC37 BRAF D437-K722-X, V600E; His6 with pFastBac HT leader (TEV site) (N); made in house; host or cells: Sf9 (baculovirus; chaperone CDC37 co-expressed)
T5 sequence (P15056 with tags, fused parts or gaps V600E): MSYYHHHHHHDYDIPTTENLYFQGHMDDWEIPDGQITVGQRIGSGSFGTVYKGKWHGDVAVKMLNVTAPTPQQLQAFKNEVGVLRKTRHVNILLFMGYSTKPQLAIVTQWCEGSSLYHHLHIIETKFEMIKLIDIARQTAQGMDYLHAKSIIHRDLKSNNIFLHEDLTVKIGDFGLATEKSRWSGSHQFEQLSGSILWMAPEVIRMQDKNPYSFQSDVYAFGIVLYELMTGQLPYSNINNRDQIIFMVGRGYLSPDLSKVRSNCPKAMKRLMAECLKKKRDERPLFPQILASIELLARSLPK

Pyk2 = target: T6, Pyk2 (Homo sapiens, UniProt Q14289); experiment: AlphaScreen kinase assay, Pyk2; settings: read-out: IC50, activity toward kinase Pyk2
T6 construct: purchased Upstate Biotechnology
T6 sequence (Q14289 whole entry): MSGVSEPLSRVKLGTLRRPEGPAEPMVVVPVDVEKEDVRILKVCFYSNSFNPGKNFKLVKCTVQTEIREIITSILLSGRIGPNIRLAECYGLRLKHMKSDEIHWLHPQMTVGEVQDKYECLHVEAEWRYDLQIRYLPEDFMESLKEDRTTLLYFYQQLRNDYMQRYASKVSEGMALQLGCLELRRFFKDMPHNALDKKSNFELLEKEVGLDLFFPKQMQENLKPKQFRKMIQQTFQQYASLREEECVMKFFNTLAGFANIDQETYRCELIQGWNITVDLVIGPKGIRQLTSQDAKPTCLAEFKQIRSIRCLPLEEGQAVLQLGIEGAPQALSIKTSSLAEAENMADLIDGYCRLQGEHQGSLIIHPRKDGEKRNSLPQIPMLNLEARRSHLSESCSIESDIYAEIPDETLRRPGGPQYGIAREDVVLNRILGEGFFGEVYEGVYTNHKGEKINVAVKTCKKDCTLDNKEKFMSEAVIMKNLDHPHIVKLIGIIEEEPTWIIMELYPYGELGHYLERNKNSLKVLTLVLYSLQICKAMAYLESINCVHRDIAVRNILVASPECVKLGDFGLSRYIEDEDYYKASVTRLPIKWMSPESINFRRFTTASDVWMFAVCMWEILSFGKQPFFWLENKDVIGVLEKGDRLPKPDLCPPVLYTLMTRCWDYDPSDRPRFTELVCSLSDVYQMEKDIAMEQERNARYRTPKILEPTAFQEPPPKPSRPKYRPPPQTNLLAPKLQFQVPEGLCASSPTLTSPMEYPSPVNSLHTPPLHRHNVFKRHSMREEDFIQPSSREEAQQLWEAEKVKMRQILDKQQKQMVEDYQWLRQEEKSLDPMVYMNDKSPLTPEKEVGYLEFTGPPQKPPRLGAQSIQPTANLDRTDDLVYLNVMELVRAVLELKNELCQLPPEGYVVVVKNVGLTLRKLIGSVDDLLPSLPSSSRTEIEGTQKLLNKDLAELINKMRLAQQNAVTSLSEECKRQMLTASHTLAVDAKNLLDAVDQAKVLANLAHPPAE

B-Raf = target: T7, B-Raf (Homo sapiens, UniProt P15056); experiment: AlphaScreen kinase assay, B-Raf; settings: read-out: IC50, activity toward kinase B-Raf
T7 construct: purchased Upstate Biotechnology
T7 sequence (P15056 whole entry): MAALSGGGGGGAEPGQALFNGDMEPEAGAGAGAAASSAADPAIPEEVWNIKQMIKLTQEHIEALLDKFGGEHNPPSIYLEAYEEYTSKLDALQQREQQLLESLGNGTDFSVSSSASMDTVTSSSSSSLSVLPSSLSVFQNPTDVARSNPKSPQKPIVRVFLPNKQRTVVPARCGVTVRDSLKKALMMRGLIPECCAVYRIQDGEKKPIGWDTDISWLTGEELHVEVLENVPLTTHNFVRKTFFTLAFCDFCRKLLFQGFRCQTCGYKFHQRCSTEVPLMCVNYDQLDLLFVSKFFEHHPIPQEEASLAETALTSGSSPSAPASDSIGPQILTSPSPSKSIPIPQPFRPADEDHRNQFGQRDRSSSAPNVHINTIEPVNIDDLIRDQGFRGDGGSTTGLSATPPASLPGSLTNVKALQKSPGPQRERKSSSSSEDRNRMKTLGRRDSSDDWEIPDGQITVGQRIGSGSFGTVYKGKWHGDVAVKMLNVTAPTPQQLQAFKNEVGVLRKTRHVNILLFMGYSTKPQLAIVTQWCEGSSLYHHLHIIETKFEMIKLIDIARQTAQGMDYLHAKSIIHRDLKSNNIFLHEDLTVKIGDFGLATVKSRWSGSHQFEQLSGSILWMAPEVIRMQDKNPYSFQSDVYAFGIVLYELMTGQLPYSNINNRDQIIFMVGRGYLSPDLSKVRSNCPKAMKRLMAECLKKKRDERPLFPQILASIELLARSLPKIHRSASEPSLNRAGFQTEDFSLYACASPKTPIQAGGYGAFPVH

Ret = target: T8, Ret (Homo sapiens, UniProt P07949); experiment: AlphaScreen kinase assay, Ret; settings: read-out: IC50, activity toward kinase Ret
T8 construct: P1378.pET-SF BI-PTP RET H661-R1012 HIS; made in house
T8 sequence (P07949 with tags, fused parts or gaps): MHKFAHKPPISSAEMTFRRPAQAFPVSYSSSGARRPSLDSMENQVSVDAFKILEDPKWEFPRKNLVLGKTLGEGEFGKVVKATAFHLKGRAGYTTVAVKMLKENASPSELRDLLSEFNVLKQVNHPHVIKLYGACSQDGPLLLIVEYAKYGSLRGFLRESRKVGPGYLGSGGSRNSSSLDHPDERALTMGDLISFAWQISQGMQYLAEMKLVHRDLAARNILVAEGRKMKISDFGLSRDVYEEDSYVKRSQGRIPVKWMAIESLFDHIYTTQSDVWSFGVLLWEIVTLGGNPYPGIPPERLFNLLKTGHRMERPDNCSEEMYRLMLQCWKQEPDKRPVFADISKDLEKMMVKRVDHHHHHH

Kit = target: T9, Kit (Homo sapiens, UniProt P10721); experiment: AlphaScreen kinase assay, Kit; settings: read-out: IC50, activity toward kinase Kit
T9 construct: P1332.N6 BI PTP KIT M552-K948-X COD; His6 (N); made in house; host or cells: E. coli (PTP1B co-expressed)
T9 sequence (P10721 with tags, fused parts or gaps): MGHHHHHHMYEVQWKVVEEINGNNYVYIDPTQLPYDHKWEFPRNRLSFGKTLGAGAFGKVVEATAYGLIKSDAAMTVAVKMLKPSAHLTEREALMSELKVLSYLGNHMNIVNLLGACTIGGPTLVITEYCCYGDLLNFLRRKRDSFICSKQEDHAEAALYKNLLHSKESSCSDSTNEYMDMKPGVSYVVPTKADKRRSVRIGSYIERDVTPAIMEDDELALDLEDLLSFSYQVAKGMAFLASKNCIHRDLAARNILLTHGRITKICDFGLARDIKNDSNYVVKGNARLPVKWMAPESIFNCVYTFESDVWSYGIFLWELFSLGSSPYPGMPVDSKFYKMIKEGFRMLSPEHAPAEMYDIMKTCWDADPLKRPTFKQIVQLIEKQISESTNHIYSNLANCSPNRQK

FGFR1 = target: T10, FGFR1 (Homo sapiens, UniProt P11362, C488A/C584S); experiment: AlphaScreen kinase assay, FGFR1; settings: read-out: IC50, activity toward kinase FGFR
T10 construct: P1351.pET N6 BI-PTP FGFR A458-E765-X C488A, C584S; made in house; host or cells: E. coli (PTP1B co-expressed)
T10 sequence (P11362 458-765 C488A/C584S): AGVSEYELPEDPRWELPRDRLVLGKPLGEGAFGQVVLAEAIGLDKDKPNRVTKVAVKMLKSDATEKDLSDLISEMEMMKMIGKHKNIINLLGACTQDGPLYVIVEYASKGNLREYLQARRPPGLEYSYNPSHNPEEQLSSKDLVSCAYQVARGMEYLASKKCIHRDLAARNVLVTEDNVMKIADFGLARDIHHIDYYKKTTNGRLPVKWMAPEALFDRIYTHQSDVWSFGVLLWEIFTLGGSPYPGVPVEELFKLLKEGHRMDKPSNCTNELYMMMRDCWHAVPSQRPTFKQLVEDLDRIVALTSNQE

Src = target: T11, Src (Homo sapiens, UniProt P12931); experiment: AlphaScreen kinase assay, Src; settings: read-out: IC50, activity toward kinase Src
T11 construct: P1144. pET-N6 BI-PTP SRC V86-L536-X; made in house
T11 sequence (P12931 with tags, fused parts or gaps): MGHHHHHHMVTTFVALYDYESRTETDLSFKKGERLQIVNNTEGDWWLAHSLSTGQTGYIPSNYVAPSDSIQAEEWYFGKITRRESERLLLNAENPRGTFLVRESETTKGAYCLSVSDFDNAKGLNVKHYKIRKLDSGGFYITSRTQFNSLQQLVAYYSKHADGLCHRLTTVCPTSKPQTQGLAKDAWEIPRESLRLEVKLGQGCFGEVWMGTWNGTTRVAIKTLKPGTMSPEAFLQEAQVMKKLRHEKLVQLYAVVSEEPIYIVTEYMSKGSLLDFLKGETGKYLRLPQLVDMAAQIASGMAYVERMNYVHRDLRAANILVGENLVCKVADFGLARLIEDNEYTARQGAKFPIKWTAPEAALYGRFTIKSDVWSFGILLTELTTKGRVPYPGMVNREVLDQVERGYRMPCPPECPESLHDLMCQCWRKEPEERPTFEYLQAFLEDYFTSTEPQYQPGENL

Fak = target: T12, Fak (Homo sapiens, UniProt Q05397); experiment: AlphaScreen kinase assay, Fak; settings: read-out: IC50, activity toward kinase Fak
T12 construct: P1358.pFastBacHtb FAK S411-Q686-X; His6 with pFastBacHTb leader (TEV site) (N); made in house; host or cells: Sf9 (baculovirus)
T12 sequence (Q05397 411-686): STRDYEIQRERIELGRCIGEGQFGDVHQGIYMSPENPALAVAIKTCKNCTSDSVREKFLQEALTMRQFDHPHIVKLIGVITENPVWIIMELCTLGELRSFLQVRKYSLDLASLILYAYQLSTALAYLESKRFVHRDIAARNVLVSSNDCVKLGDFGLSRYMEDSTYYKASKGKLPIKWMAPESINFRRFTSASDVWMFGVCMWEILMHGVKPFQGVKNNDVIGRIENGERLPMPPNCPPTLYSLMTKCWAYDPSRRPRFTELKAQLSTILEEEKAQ

Fms = target: T13, Fms (Homo sapiens, UniProt P07333); experiment: AlphaScreen kinase assay, Fms; settings: read-out: IC50, activity toward kinase Fms
T13 construct: purchased Upstate Biotechnology

SMILES	IC50 (Zap70)	further results
N#Cc1ccc(/C=C\c2c[nH]c3ncccc23)cc1 [Compound P-0500]	≤ 10 µM	
COc1ccc(S(=O)(=O)NCc2ccnc3[nH]ccc23)cc1 [Compound P-0724]	≤ 10 µM	
CCCS(=O)(=O)Nc1ccc(F)c(C(O)c2c[nH]c3ncc(Br)cc23)c1F (stereo not drawn) [Compound P-0188, Propane-1-sulfonic acid {3-[(5-bromo-1H-pyrrolo[2,3-b]pyridin-3-yl)-hydroxy-methyl]-2,4-difluoro-phenyl}-amide]		IC50 (Yes): ≤ 10 µM; IC50 (Stk6): ≤ 10 µM; IC50 (c-Raf-1): ≤ 10 µM; IC50 (B-Raf V600E): ≤ 10 µM; IC50 (Pyk2): ≤ 10 µM; IC50 (B-Raf): ≤ 10 µM
O=C1CCCN1CCCNCc1c[nH]c2ncccc12 [Compound P-1184]	≤ 10 µM	
COCCN1CCN(Cc2[nH]c3ncccc3c2-c2ccc(C(N)=O)cc2)CC1 [Compound P-0856]	≤ 10 µM	
FC(F)(F)c1ccc(-c2ccnc3[nH]ccc23)cc1 [Compound P-0694]	≤ 10 µM	
CC(C)(C)NCc1c[nH]c2ncccc12 [Compound P-0476]	≤ 10 µM	
c1cnc2[nH]c(CNCCc3ccncc3)cc2c1 [Compound P-0880]	≤ 10 µM	
COc1ccc(OC)c(S(=O)(=O)NCc2c[nH]c3ncccc23)c1 [Compound P-0808]	≤ 10 µM	
CS(=O)(=O)c1ccc(CNCc2[nH]c3ncccc3c2-c2cccc(CO)c2)cc1 [Compound P-0523]	≤ 10 µM	
COc1ccc(Cc2c[nH]c3ncccc23)cc1F [Compound P-0359]	≤ 10 µM	
COC(=O)c1ccc(CCc2c[nH]c3ncccc23)cc1 [Compound P-0586]	≤ 10 µM	
Clc1ccnc2[nH]ccc12 [Compound P-0342]	≤ 10 µM	
CCOC(=O)C(Cc1c[nH]c2ncccc12)C(=O)OCC [Compound P-0642]	≤ 10 µM	
O=C(OCc1ccccc1)c1cnc2[nH]ccc2c1 [Compound P-0607]	≤ 10 µM	
c1cncc(-c2ccnc3[nH]ccc23)c1 [Compound P-0387]	≤ 10 µM	
CN(Cc1ccncc1)Cc1[nH]c2ncccc2c1-c1ccc(C(N)=O)cc1 [Compound P-0727]	≤ 10 µM	
O=S(=O)(c1ccsc1)N1CCN(Cc2c[nH]c3ncccc23)CC1 [Compound P-1051]	≤ 10 µM	
O=S(=O)(NCc1c[nH]c2ncccc12)c1ccc(O)cc1 [Compound P-0859]	≤ 10 µM	
Cc1cc2cccnc2[nH]1 [Compound P-0394]	≤ 10 µM	
O=C(NCc1ccccc1Cl)NCc1c[nH]c2ncccc12 [Compound P-0982]	≤ 10 µM	
COCc1c[nH]c2ncccc12 [Compound P-1197]	≤ 10 µM	
Clc1ccc(/C=C\c2c[nH]c3ncccc23)cn1 [Compound P-0360]	≤ 10 µM	
CS(=O)(=O)Nc1ccc(F)c(C(=O)c2c[nH]c3ncc(-c4cccc(S(C)(=O)=O)c4)cc23)c1F [Compound P-0210]		IC50 (Ret): ≤ 10 µM; IC50 (Kit): ≤ 10 µM; IC50 (Yes): ≤ 10 µM; IC50 (FGFR1): ≤ 10 µM; IC50 (c-Raf-1): ≤ 10 µM; IC50 (Src): ≤ 10 µM; IC50 (Fak): ≤ 10 µM; IC50 (B-Raf V600E): ≤ 10 µM; IC50 (Fms): ≤ 10 µM; IC50 (B-Raf): ≤ 10 µM
Fc1ccc(Cc2nc(-c3c[nH]c4ncccc34)no2)cc1 [Compound P-0602]	≤ 10 µM	
Cc1[nH]c2ncccc2c1-c1ccc(C(C)(C)C)cc1 [Compound P-0953]	≤ 10 µM	
O=Cc1c[nH]c2nccc(Cl)c12 [Compound P-0649]	≤ 10 µM	
COc1cccc(-c2ccc(S(=O)(=O)NCc3c[nH]c4ncccc34)s2)c1 [Compound P-0676]	≤ 10 µM	
O=C(c1ccccc1)c1c[nH]c2c1cc(Br)c[n+]2[O-] [Compound P-0275]	≤ 10 µM	
O=C(Nc1ccc(F)c(C(O)c2c[nH]c3ncc(-c4cccnc4)cc23)c1F)OCc1ccccc1 (stereo not drawn) [Compound P-0095, {2,4-Difluoro-3-[hydroxy-(5-pyridin-3-yl-1H-pyrrolo[2,3b]pyridin-3-yl)-methyl]-phenyl}-carbamic acid benzyl ester]		IC50 (Ret): ≤ 10 µM; IC50 (Yes): ≤ 10 µM; IC50 (B-Raf V600E): ≤ 10 µM; IC50 (Pyk2): ≤ 10 µM; IC50 (B-Raf): ≤ 10 µM
